The test system of assay [1] is male Slc:ICR mice. Kind of assay: Action against formalin-induced pain behavior in mice. The settings on record: Mus musculus, iv, 0.1 h, 6 minutes observation, read-out: Percent inhibition of pain-related behavior time (%); for inhibition in vivo at 1 mg/kg: test substance 1 mg/kg intravenously; for inhibition in vivo at 3 mg/kg: test substance 3 mg/kg intravenously. Format: in vivo. Here is the method: 4 to 6-week-old male Slc:ICR mice (available from Japan SLC, Inc.) were used. A medium or a test substance (1 mg/kg or 3 mg/kg) was intravenously administered to each mouse, and immediately thereafter, 20 μL of 1% or 5% formalin was subcutaneously administered to a right hind paw of the mouse. Thereafter, the mice were quickly put into an observation cage and measured for the total time (sec) of pain-related behavior (licking or biting behavior against the right hindlimb) during 6 minutes, and an average value of the pain-related behavior time of each group was calculated.
The intensity of an analgesic action of the test substance was evaluated in terms of percent inhibition (%) of pain-related behavior time which is calculated as {(A−B)/A×100}, wherein A is an average value of the pain-related behavior time of a medium-administered group, and B is an average value of the pain-related behavior time of a test substance-administered group.

A further assay has as its target T1, human mGluR5 (Homo sapiens, UniProt P41594).
T1 construct: expressed in transfected cells
Briefly: Experiment for receptor function of mGluR5 (Ca2+-dependent fluorescence, FLIPR, CHO-K1 cells stably expressing human mGluR5). It is filed as cell-based. The settings on record: L-glutamic acid 10 μM, Fluo-4 fluorescence. A digest of the protocol: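 Fluo-4-loaded CHO-K1 cells pre-incubated 2 min with test substance, then stimulated with L-glutamic acid (final 10 μM) in HBSS, pH 7.4. FLIPR Ca2+ fluorescence normalized to glutamate alone (100%) and glutamate with 10 μM MPEP (0%); IC50 estimated by logistic fit.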

Assay [2] relates to male Slc:ICR mice. Kind of assay: Action against pain-related behavior and micturition cycle in mice with cyclophosphamide (CP)-induced acute cystitis. Format: in vivo. The settings on record: Mus musculus, iv, 0.25 h, CP 300 mg/kg i.p., 15 minutes observation; for inhibition in vivo at 1 mg/kg: test substance 1 mg/kg intravenously 3 hours after CP; for inhibition in vivo at 3 mg/kg: test substance 3 mg/kg intravenously 3 hours after CP. Here is the method: An action of a test substance against visceral pain and frequent urination associated with cystitis, which was induced by intraperitoneal administration (20 mL/kg) of CP (300 mg/kg) to 4 to 5-week-old male Slc:ICR mice (available from Japan SLC, Inc.), was investigated. This experiment was performed according to a method described in European Journal of Pharmacology, 676 (2012), pp. 75-80.
Three hours after the administration of CP, a test substance (1 mg/kg or 3 mg/kg) was intravenously administered, and observation by visual inspection and video recording were performed for 15 minutes immediately thereafter. In the observation by visual inspection, four pain-related behaviors (eye opening, rounded back, leg dragging, and behavior during urination) were scored, each rated on a scale of 0-10, according to the following criteria.
Eye opening (normal: 0 point, sometimes closed or half-open eyes: 5 points, completely closed: 10 points)
Rounded back (normal: 0 point, sometimes crouched: 5 points, crouched at almost all times: 10 points)
Leg dragging (normal: 0 point, leg dragging: 10 points)
Behavior during urination (normal: 0 point, shaking hip in micturition: 10 points)
In addition, the video was played back, and the frequency of licking behavior around the abdomen as a pain-related behavior was scored, rated on a scale of 0-10, according to the following criteria.
Licking behavior around the abdomen (0 to 3 times: 0 point, 4 times to 10 times: 5 points, 11 times or more: 10 points)
Furthermore, the video was played back, and the frequency of urination (urination marks) on a filter paper was counted and taken as an index for micturition cycle.
An average value of the pain-related behavior score of each group (total score of the five items: 50 points at maximum) and an average value of the frequency of urination (urination marks) on the filter paper were determined.
The strength of an analgesic action of the test substance against the CP-induced visceral pain was evaluated in terms of percent inhibition (%) of pain-related behavior score which is calculated as {(A−B)/A×100}, wherein A is an average value of the pain-related behavior score of a medium-administered group, and B is an average value of the pain-related behavior score of a test substance-administered group.
In addition, the strength of a frequent urination inhibitory action of the test substance against the CP-induced frequent urination was evaluated in terms of percent inhibition (%) of the frequency of urination which is calculated as {(C−D)/C×100}, wherein C is an average value of the frequency of urination of a medium-administered group, and D is an average value of the frequency of urination of a test substance-administered group.

The mark [3] stands for this setting: read-out: Percent inhibition of pain-related behavior score (%).
Setting [4] is: read-out: Percent inhibition of the frequency of urination (%).

Counter-ions that a name gives are not always drawn.

T1 sequence (P41594 21-1212): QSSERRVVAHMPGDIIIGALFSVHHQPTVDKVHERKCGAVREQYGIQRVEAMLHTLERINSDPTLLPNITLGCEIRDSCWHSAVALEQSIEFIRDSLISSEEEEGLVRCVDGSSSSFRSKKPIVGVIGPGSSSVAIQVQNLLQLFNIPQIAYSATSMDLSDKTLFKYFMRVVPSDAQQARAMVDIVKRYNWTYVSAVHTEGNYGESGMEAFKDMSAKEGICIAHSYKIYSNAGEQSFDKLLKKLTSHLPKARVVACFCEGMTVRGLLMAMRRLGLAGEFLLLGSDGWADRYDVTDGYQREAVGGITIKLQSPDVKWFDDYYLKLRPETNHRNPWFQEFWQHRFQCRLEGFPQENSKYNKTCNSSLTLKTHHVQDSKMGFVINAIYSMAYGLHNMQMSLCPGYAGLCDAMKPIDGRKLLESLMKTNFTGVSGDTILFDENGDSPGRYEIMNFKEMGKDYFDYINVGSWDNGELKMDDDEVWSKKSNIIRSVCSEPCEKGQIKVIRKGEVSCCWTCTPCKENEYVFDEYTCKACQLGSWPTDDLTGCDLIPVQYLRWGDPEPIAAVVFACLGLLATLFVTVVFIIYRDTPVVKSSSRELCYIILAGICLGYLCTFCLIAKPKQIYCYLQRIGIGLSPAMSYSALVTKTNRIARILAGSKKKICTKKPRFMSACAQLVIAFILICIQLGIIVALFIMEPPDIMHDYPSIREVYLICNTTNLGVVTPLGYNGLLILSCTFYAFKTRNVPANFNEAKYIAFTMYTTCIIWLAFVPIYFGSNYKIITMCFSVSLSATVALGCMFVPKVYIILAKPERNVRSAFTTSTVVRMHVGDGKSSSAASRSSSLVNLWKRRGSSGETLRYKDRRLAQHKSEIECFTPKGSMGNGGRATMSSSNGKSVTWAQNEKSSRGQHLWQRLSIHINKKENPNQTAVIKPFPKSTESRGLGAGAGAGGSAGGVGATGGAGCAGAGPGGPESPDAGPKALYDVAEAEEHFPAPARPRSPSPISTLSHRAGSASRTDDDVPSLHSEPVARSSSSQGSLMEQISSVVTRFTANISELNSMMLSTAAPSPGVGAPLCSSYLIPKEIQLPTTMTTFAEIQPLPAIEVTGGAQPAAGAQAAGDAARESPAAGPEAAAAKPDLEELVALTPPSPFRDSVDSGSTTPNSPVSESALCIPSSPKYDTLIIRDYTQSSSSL

Regarding `Nc1ncc(-c2cc(OCc3cccc(F)n3)nc3c2CCCC3)cn1` [Example 283, 5-{2-[(6-Fluoropyridin-2-yl)methoxy]-5,6,7,8-tetrahydroquinolin-4-yl}pyrimidin-2-amine hydrochloride], the inhibition in vivo at 1 mg/kg in the assay with male Slc:ICR mice [1] (5% formalin) turned out to be 38.8%.
For `Fc1cccc(COc2cc(-c3cncnc3)c3c(n2)CCC3)c1` [Example 15, 2-[(3-Fluorobenzyl)oxy]-4-(pyrimidin-5-yl)-6,7-dihydro-5H-cyclopenta[b]pyridine], the inhibition in vivo at 1 mg/kg in the assay on male Slc:ICR mice [1] (5% formalin) is 64%.
As to `Cc1ncc(-c2cc(OCc3cccc(C#N)n3)nc3c2CCCC3)cn1` [Example 183, 6-({[4-(2-Methylpyrimidin-5-yl)-5,6,7,8-tetrahydroquinolin-2-yl]oxy}methyl)pyridine-2-carbonitrile], the IC50 at human mGluR5 stood at 148 nM. Besides, the inhibition in vivo at 1 mg/kg in the assay on male Slc:ICR mice [2] (setting [3]) worked out at 37%; in the assay on male Slc:ICR mice [2] (setting [4]), 22.7%.
On to `N#Cc1ccc(-c2cc(OCc3ncc(F)cc3F)nc3c2CCC3)cn1` [Example 246, 5-{2-[(3,5-Difluoropyridin-2-yl)methoxy]-6,7-dihydro-5H-cyclopenta[b]pyridin-4-yl}pyridine-2-carbonitrile], for which, at human mGluR5, half-maximal inhibition (IC50) required 42 nM. In addition, the inhibition in vivo at 1 mg/kg in the assay on male Slc:ICR mice [1] (5% formalin) was 22.8%.
On human mGluR5, `Fc1ncccc1-c1cc(OCc2ccccn2)nc2c1CCC2` [Example 2, 4-(2-Fluoropyridin-3-yl)-2-(pyridin-2-ylmethoxy)-6,7-dihydro-5H-cyclopenta[b]pyridine hydrochloride] came in with an IC50 of 5.26 nM. Further, the inhibition in vivo at 1 mg/kg in the assay with male Slc:ICR mice [1] (1% formalin) came to 47%.
For `[O-][n+]1cncc(-c2cc(OCc3ccccn3)nc3c2CCCC3)c1` [Example 231, 4-(1-Oxidopyrimidin-5-yl)-2-(pyridin-2-ylmethoxy)-5,6,7,8-tetrahydroquinoline], the IC50 on human mGluR5 amounted to 304 nM. Further, the inhibition in vivo at 1 mg/kg with male Slc:ICR mice [1] (5% formalin) is 66.1%.
On human mGluR5, `Fc1cccnc1COc1cc(-c2cncnc2)c2c(n1)CCCC2` [Example 147, 2-[(3-Fluoropyridin-2-yl)methoxy]-4-(pyrimidin-5-yl)-5,6,7,8-tetrahydroquinoline] came in with a half-maximal inhibitory concentration (IC50) of 19.7 nM. Besides, the inhibition in vivo at 3 mg/kg is 38.8% in the assay on male Slc:ICR mice [2] (setting [3]) and 21.1% with male Slc:ICR mice [2] (setting [4]).
At human mGluR5, `N#Cc1cccc(COc2cc(-c3cncnc3)c3c(n2)CCC3)c1` [Example 23, 3-({[4-(Pyrimidin-5-yl)-6,7-dihydro-5H-cyclopenta[b]pyridin-2-yl]oxy}methyl)benzonitrile] showed an IC50 of 39 nM. Moreover, the inhibition in vivo at 1 mg/kg with male Slc:ICR mice [1] (5% formalin) was 47.9%.
`c1ncc(-c2cc(OCc3ncco3)nc3c2CCCC3)cn1` [Example 165, 2-(1,3-Oxazol-2-ylmethoxy)-4-(pyrimidin-5-yl)-5,6,7,8-tetrahydroquinoline]: the IC50 against human mGluR5 was 37.9 nM. For the same molecule, the inhibition in vivo at 1 mg/kg in the assay with male Slc:ICR mice [1] (1% formalin) stood at 52.3%.
Taken in the same sequence, the figures for `c1ncc(-c2cc(OCc3nccs3)nc3c2CCCC3)cn1` [Example 164, 4-(Pyrimidin-5-yl)-2-(1,3-thiazol-2-ylmethoxy)-5,6,7,8-tetrahydroquinoline] were 27.9 nM and 42.2%.
Molecule `c1cnc(COc2cc(-c3cccnc3)c3c(n2)CCCC3)nc1` [Example 90, 4-(Pyridin-3-yl)-2-(pyrimidin-2-ylmethoxy)-5,6,7,8-tetrahydroquinoline] yielded a half-maximal inhibitory concentration (IC50) on human mGluR5 of 152 nM. The inhibition in vivo at 1 mg/kg in the assay on male Slc:ICR mice [1] (5% formalin) was 54.3%.
At human mGluR5, `Fc1ccc(F)c(COc2cc(-c3cncnc3)c3c(n2)CCCC3)n1` [Example 148, 2-[(3,6-Difluoropyridin-2-yl)methoxy]-4-(pyrimidin-5-yl)-5,6,7,8-tetrahydroquinoline] showed a 50% inhibitory concentration (IC50) of 22 nM. The inhibition in vivo at 3 mg/kg amounted to 45.7% in the assay on male Slc:ICR mice [2] (setting [3]) and 31.5% in the assay with male Slc:ICR mice [2] (setting [4]).
For the molecule `CC1CCc2c(-c3cncnc3)cc(OCc3ccccn3)nc21` (stereo not shown) [Example 238, 7-Methyl-2-(pyridin-2-ylmethoxy)-4-(pyrimidin-5-yl)-6,7-dihydro-5H-cyclopenta[b]pyridine], the IC50 at human mGluR5 is 23 nM. Besides, the inhibition in vivo at 1 mg/kg with male Slc:ICR mice [1] (5% formalin) was 77.9%.
`c1ccc(COc2cc(-c3cncnc3)c3c(n2)CCCC3)nc1` [Example 143, 2-(Pyridin-2-ylmethoxy)-4-(pyrimidin-5-yl)-5,6,7,8-tetrahydroquinoline hydrochloride] had a 50% inhibitory concentration (IC50) against human mGluR5 of 38 nM. In addition, the inhibition in vivo at 3 mg/kg with male Slc:ICR mice [2] (setting [3]) is 52.2%; in the assay with male Slc:ICR mice [2] (setting [4]), 47.7%.
Take `c1ccc(COc2cc(-c3cncnc3)c3c(n2)CCC3)nc1` [Example 12, 2-(Pyridin-2-ylmethoxy)-4-(pyrimidin-5-yl)-6,7-dihydro-5H-cyclopenta[b]pyridine hydrochloride]: the inhibition in vivo at 1 mg/kg with male Slc:ICR mice [1] (1% formalin) turned out to be 66.8%.
Take `c1ccc(COc2cc(-c3cccnc3)c3c(n2)CCCC3)nc1` [Example 82, 4-(Pyridin-3-yl)-2-(pyridin-2-ylmethoxy)-5,6,7,8-tetrahydroquinoline]: on human mGluR5, the IC50 is 153 nM. In the assay on male Slc:ICR mice [1] (1% formalin), the inhibition in vivo at 3 mg/kg stood at 59.8%.
As for `c1cnc(COc2cc(-c3cncnc3)c3c(n2)CCCC3)cn1` [Example 163, 2-(Pyrazin-2-ylmethoxy)-4-(pyrimidin-5-yl)-5,6,7,8-tetrahydroquinoline], the inhibition in vivo at 3 mg/kg in the assay on male Slc:ICR mice [1] (5% formalin) came to 37.2%.
For the molecule `COCc1ncc(-c2cc(OCc3ccccn3)nc3c2CCCC3)s1` [Example 227, 4-[2-(Methoxymethyl)-1,3-thiazol-5-yl]-2-(pyridin-2-ylmethoxy)-5,6,7,8-tetrahydroquinoline], the half-maximal inhibitory concentration (IC50) against human mGluR5 came to 36.2 nM. In the assay with male Slc:ICR mice [1] (1% formalin), the inhibition in vivo at 1 mg/kg was found to be 25.6%.
`OCc1cncc(-c2cc(OCc3ccccn3)nc3c2CCC3)n1` [Example 268, {6-[2-(Pyridin-2-ylmethoxy)-6,7-dihydro-5H-cyclopenta[b]pyridin-4-yl]pyrazin-2-yl}methanol hydrochloride]: in the assay on male Slc:ICR mice [1] (5% formalin), the inhibition in vivo at 1 mg/kg was 53.9%.
For the molecule `Cc1ncc(-c2cc(OCc3cccc(C#N)n3)nc3c2CCC3)cn1` [Example 46, 6-({[4-(2-Methylpyrimidin-5-yl)-6,7-dihydro-5H-cyclopenta[b]pyridin-2-yl]oxy}methyl)pyridine-2-carbonitrile], 207 nM corresponded to half-maximal inhibition at human mGluR5 (IC50). The values for the inhibition in vivo at 1 mg/kg in the assay with male Slc:ICR mice [2] (setting [3]) and in the assay on male Slc:ICR mice [2] (setting [4]) were 22% and 31.5%, respectively.
`Nc1ncc(-c2cc(OCc3ncccc3F)nc3c2CCCC3)cn1` [Example 191, 5-{2-[(3-Fluoropyridin-2-yl)methoxy]-5,6,7,8-tetrahydroquinolin-4-yl}pyrimidin-2-amine hydrochloride] registered an IC50 against human mGluR5 of 36 nM. Further, the inhibition in vivo at 3 mg/kg with male Slc:ICR mice [2] (setting [3]) came out at 20.5%; with male Slc:ICR mice [2] (setting [4]) it was 36.5%.

Values taken from US20150225404A1, “PYRIDINE DERIVATIVE AND MEDICINE” (NIPPON SHINYAKU CO., LTD., priority 2012, published 2015).
